The data set in a line: Biodistribution in healthy mice. It is filed as in vivo, female Balb/c mice. To be noted: in saline.

For `[47Sc+3].[Cl-].[Cl-].[Cl-]` [free ^47Sc], the “biodistribution pattern at 1 hour” value is “more widespread uptake within heart, lungs, spleen, kidney, and femur” (n=4); “widespread biodistribution with uptake seen in heart, spleen and kidneys along with the liver, and intestines” (n=4, listed as [^47Sc]ScCl3).

(Values after article PMC10390652 (Inorganic chemistry, 2023).)
